This passage reports IC50 and Reduction results from ChEMBL document CHEMBL1151056, “The preparation and utilization of paraherquamide-2-O-methyl imidate in the synthesis of 14-O-substituted paraherquamide derivatives” (Bioorg Med Chem Lett, 1992).

One experiment has as its system Caenorhabditis elegans. Description: In vitro inhibition against Caenorhabditis elegans motility for anthelmintic activity was measured. The class given is functional, organism-based.
Experiment [1] deals with Ovis aries. Briefly: Evaluated for the anthelmintic activity against Trichostrongylus colubriformis in sheep at dose of 2 mg/kg; value ranges from 91-100%. In kind it is functional.
Experiment [2] relates to Ovis aries. Briefly: Evaluated for the anthelmintic activity against Haemonchus contortus in sheep at dose of 0.5 mg/kg; value ranges from 91-100%. The class given is functional.
For experiment [3], the system named is Ovis aries. Description: Evaluated for the anthelmintic activity against Ostertagia circumcincta in sheep at dose of 2 mg/kg; value ranges from 91-100%. The class given is functional.
In experiment [4] the test system is Ovis aries. Briefly: Evaluated for the anthelmintic activity against Haemonchus contortus in sheep at dose of 2 mg/kg; value ranges from 91-100%. In kind it is functional.
In experiment [5] the test system is Ovis aries. Briefly: Evaluated for the anthelmintic activity against Trichostrongylus axei in sheep at dose of 0.5 mg/kg; value ranges from 91-100%. In kind it is functional.
Experiment [6] relates to Ovis aries. Description: Evaluated for the anthelmintic activity against Trichostrongylus axei in sheep at dose of 2 mg/kg; value ranges from 91-100%. In kind it is functional.
Experiment [7] relates to Ovis aries. Briefly: Evaluated for the anthelmintic activity against Cooperia species in sheep at dose of 2 mg/kg; value ranges from 91-100%. The class given is functional.
Experiment [8] concerns Ovis aries. Briefly: Evaluated for the anthelmintic activity against Oesophagostomum columbianum in sheep at dose of 2 mg/kg; value ranges from 51-75%. In kind it is functional.
The subject of experiment [9] is Ovis aries. Briefly: Evaluated for the anthelmintic activity against Trichostrongylus colubriformis in sheep at dose of 0.5 mg/kg; value ranges from 91-100%. In kind it is functional.
Experiment [10] has as its system Ovis aries. Description: Evaluated for the anthelmintic activity against Ostertagia circumcincta in sheep at dose of 0.5 mg/kg; value ranges from 91-100%. In kind it is functional.
In experiment [11] the test system is Ovis aries. Briefly: Evaluated for the anthelmintic activity against Cooperia species in sheep at dose of 0.5 mg/kg; value ranges from 91-100%. The class given is functional.
Experiment [12] has as its system Ovis aries. Description: Evaluated for the anthelmintic activity against Oesophagostomum columbianum in sheep at dose of 0.5 mg/kg. The class given is functional.

The structures appear in SMILES notation. In brackets after ≈: the same amount, converted by molar mass.

What is called IC50 is the concentration at which inhibition is half-maximal. `CN1C(=O)C23CC4C1(CN2CC[C@@]3(C)OCc1ccccc1)CC1(C(=O)Nc2c1ccc1c2OC=CC(C)(C)O1)C4(C)C` (stereo partly specified) yielded an IC50 in the experiment on Caenorhabditis elegans of 65 µg/mL (≈ 111 µM).

Take `COCCOCO[C@]1(C)CCN2CC34CC5(C(=O)Nc6c5ccc5c6OC=CC(C)(C)O5)C(C)(C)C3CC21C(=O)N4C` (stereo partly specified): half-maximal inhibition in the experiment on Caenorhabditis elegans (IC50) was put at 20 µg/mL (≈ 34.4 µM).

Regarding `CN1C(=O)C23CC4C1(CN2CC[C@@]3(C)O[Si](C)(C)C)CC1(C(=O)Nc2c1ccc1c2OC=CC(C)(C)O1)C4(C)C` (stereo partly specified), the half-maximal inhibitory concentration (IC50) in the experiment on Caenorhabditis elegans stood at 3 µg/mL (≈ 5.3 µM).

`C=CCO[C@]1(C)CCN2CC34CC5(C(=O)Nc6c5ccc5c6OC=CC(C)(C)O5)C(C)(C)C3CC21C(=O)N4C` (stereo partly specified): the Reduction with Ovis aries [1], in the experiment with Ovis aries [2], with Ovis aries [3], in the experiment with Ovis aries [4], in the experiment on Ovis aries [5] and in the experiment with Ovis aries [6] was 91% throughout. Further, the Reduction is 91% with Ovis aries [7]; 51% in the experiment on Ovis aries [8]; 91% in the experiment on Ovis aries [9]; 91% with Ovis aries [10]; 91% in the experiment with Ovis aries [11]; <50% with Ovis aries [12]. Inhibition in the experiment with Caenorhabditis elegans was half-maximal at 15 µg/mL (≈ 28.1 µM) (IC50).

Molecule `CCCCO[C@]1(C)CCN2CC34CC5(C(=O)Nc6c5ccc5c6OC=CC(C)(C)O5)C(C)(C)C3CC21C(=O)N4C` (stereo partly specified) gave a half-maximal inhibitory concentration (IC50) in the experiment on Caenorhabditis elegans of 5 µg/mL (≈ 9.1 µM).

In the experiment with Caenorhabditis elegans, `CO[C@]1(C)CCN2CC34CC5(C(=O)Nc6c5ccc5c6OC=CC(C)(C)O5)C(C)(C)C3CC21C(=O)N4C` (stereo partly specified) registered an IC50 of 70 µg/mL (≈ 138 µM).

For `CCO[C@]1(C)CCN2CC34CC5(C(=O)Nc6c5ccc5c6OC=CC(C)(C)O5)C(C)(C)C3CC21C(=O)N4C` (stereo partly specified), the IC50 with Caenorhabditis elegans turned out to be 2 µg/mL (≈ 3.83 µM).

`CNC(=O)N(C)C(=O)O[C@]1(C)CCN2CC34CC5(C(=O)Nc6c5ccc5c6OC=CC(C)(C)O5)C(C)(C)C3CC21C(=O)N4C` (stereo partly specified) gave a half-inhibitory concentration (IC50) in the experiment with Caenorhabditis elegans of 60 µg/mL (≈ 98.7 µM).

In the experiment with Caenorhabditis elegans, `C#CCO[C@]1(C)CCN2CC34CC5(C(=O)Nc6c5ccc5c6OC=CC(C)(C)O5)C(C)(C)C3CC21C(=O)N4C` (stereo partly specified) returned a 50% inhibitory concentration (IC50) of 7.5 µg/mL (≈ 14.1 µM).
